Measurements taken from patent US20100324282A1, “METHOD FOR SEPARATING HETEROPOLYACID” (TOYOTA JIDOSHA KABUSHIKI KAISHA, priority 2009, published 2010).

How the values were obtained:
Type in all cases: physicochemical
[1] = Heating reaction test with phosphotungstic acid triacontahydrate: distribution of glucose; conditions: phosphotungstic acid triacontahydrate 30 g + glucose 5 g, heated
Procedure: (§1) Phosphotungstic acid triacontahydrate (30 g) was mixed with glucose (5 g), the resultant was heated, and various types of the selected organic solvents were added in amounts 3 times greater than the minimal amount of the solvent necessary to dissolve phosphotungstic acid (by volume). The resultant was stirred and allowed to stand, followed by phase separation. The samples were dried using a centrifuge, the phosphotungstic acid content in the dried specimens was analyzed by the ICP mass spectrometer, and glucose content was assayed via liquid chromatography.

[2] = Heating reaction test with saturated aqueous solution of phosphotungstic acid: distribution of glucose; conditions: saturated aqueous solution of phosphotungstic acid triacontahydrate 30 g + glucose 5 g, heated
Procedure: (§2) A saturated aqueous solution containing 30 g of phosphotungstic acid triacontahydrate was mixed with 5 g of glucose, the mixture was heated, and various types of the selected organic solvents were then added thereto in amounts 3 times greater than the minimal amount of the solvent necessary to dissolve phosphotungstic acid (by volume). The resultant was stirred and allowed to stand, followed by phase separation. Samples were dried using a centrifuge, the phosphotungstic acid content in the dried specimens was analyzed by the ICP mass spectrometer, and glucose content was assayed via liquid chromatography.

[3] = Heating reaction test with saturated aqueous solution of phosphotungstic acid: distribution of phosphotungstic acid; conditions: saturated aqueous solution of phosphotungstic acid triacontahydrate 30 g + glucose 5 g, heated
Procedure: as §2

[4] = Distribution ratio of phosphotungstic acid to organic solvent and water (saturated aqueous solution of phosphotungstic acid); conditions: ICP
Procedure: (§3) The resultant was stirred and allowed to stand, followed by phase separation. Samples were obtained from each phase in an amount of 1 ml and the samples were dried using a centrifuge. The dried specimens were analyzed by the ICP mass spectrometer. Water was dissolved in each phase in order to identify an aqueous phase.

[5] = Assay of solubility of glucose in organic solvent; conditions: in the listed organic solvent, room temperature
Procedure: Glucose was added to an organic solvent at room temperature. Glucose was continuously added until it was not able to dissolve therein, and solubility was determined based on the entire amount of glucose added.

[6] = Distribution ratio of phosphotungstic acid to organic solvent and water (powdery phosphotungstic acid); conditions: ICP
Procedure: as §3, with “inductively coupled plasma (ICP)” for “ICP”

[7] = Assay of solubility of phosphotungstic acid in organic solvent; conditions: in the listed organic solvent, room temperature
Procedure: Phosphotungstic acid was added to an organic solvent at room temperature. Phosphotungstic acid was continuously added until it was not able to dissolve therein, and solubility was determined based on the entire amount of phosphotungstic acid added.

[8] = Heating reaction test with phosphotungstic acid triacontahydrate: distribution of phosphotungstic acid; conditions: phosphotungstic acid triacontahydrate 30 g + glucose 5 g, heated
Procedure: as §1

[9] = Assay of distribution ratio of glucose (saturated aqueous solution of phosphotungstic acid)
Procedure: n-Butyl ethyl ether (26.67 ml) was added to a saturated aqueous solution containing 30 g of phosphotungstic acid. The resultant was stirred and allowed to stand, followed by phase separation. Glucose was continuously added until glucose was not able to dissolve in each phase. Solubility of glucose in n-butyl ethyl ether was determined based on the amount of glucose dissolved.

SMILES	Distribution ratio of glucose (%) ([1]; Second phase (aqueous phase))	Distribution ratio of glucose (%) ([2]; First phase)	Distribution ratio of glucose (%) ([2]; Second phase (aqueous phase))	Distribution ratio of phosphotungstic acid (based on tungsten) (%) ([3]; First phase)	Distribution ratio of phosphotungstic acid (based on tungsten) (%) ([3]; Second phase (aqueous phase))	Distribution ratio of phosphotungstic acid (based on tungsten) (%) ([4]; First phase (from top))	Distribution ratio of phosphotungstic acid (based on tungsten) (%) ([4]; Second phase (from top))	Distribution ratio of phosphotungstic acid (based on tungsten) (%) ([4]; Third phase (from top))	Solubility of glucose (wt %) [5]	Distribution ratio of phosphotungstic acid (based on tungsten) (%) ([6]; First phase (from top))	Distribution ratio of phosphotungstic acid (based on tungsten) (%) ([6]; Second phase (from top))	Solubility of phosphotungstic acid (wt %) [7]	Distribution ratio of phosphotungstic acid (based on tungsten) (%) ([8]; First phase)	Distribution ratio of phosphotungstic acid (based on tungsten) (%) ([8]; Second phase (aqueous phase))	Distribution ratio of glucose (%) ([1]; Third phase)	Distribution ratio of glucose (%) ([2]; Third phase)	Distribution ratio of phosphotungstic acid (based on tungsten) (%) ([3]; Third phase)	Distribution ratio of phosphotungstic acid (based on tungsten) (%) ([6]; Third phase (from top))	Distribution ratio of phosphotungstic acid (based on tungsten) (%) ([8]; Third phase)	also measured
CCCCCCCCO [1-Octanol]	100%	0%	100%	96.8%	3.2%	1.3%	97.3%	1.4%	<0.045 wt %	97.7%	2.3%	200 wt %	96.9%	3.1%	–	–	–	–	–	–
CCCCCCC(C)O (stereo not shown) [2-Octanol]	100%	0.8%	99.2%	98.1%	1.9%	1.0%	97.7%	1.3%	<0.043 wt %	97.9%	2.1%	200 wt %	98.3%	1.7%	–	–	–	–	–	–
CCOCC [Diethyl ether]	100%	0%	100%	0.04%	1.6%	0.01%	1.5%	98.5%	<0.025 wt %	0.01%	99.4%	>229.3 wt %	0.03%	1.7%	0%	0%	98.3%	0.6%	98.3%	Distribution ratio of glucose (%) ([1]; First phase): 0%
CCCCOCC [n-Butyl ethyl ether]	100%	–	100%	0.1%	8.9%	0.1%	5.1%	94.8%	<0.03 wt %	0.1%	2.9%	300 wt %	0.1%	10.2%	0%	0%	91.0%	97.0%	89.7%	Distribution ratio of phosphotungstic acid (based on tungsten) (%) ([6]; Third phase (from top), listed as n-butyl ethyl ether): 97%; Distribution ratio of glucose (%) ([9]; First phase): 0.1%; Distribution ratio of glucose (%) ([9]; Second phase (aqueous)): 97.7%; Distribution ratio of glucose (%) ([9]; Third phase): 2.2%
